US10561638B2, “Methods for treating dependence” (Biotie Therapies, Inc., priority 2007, dated 2020)

Experiments:
[1] = test system: rats; experiment: Chronic (10 day) dosing behavioral tests in rats; conditions: rat, in vivo
Method: The effects of chronic dosing of nepicastat in rats were examined. Between three and thirteen days prior to the first dosing day the rats were placed inside the startle apparatus and after a five minute acclimation period they were presented with a 118 dB noise burst on average once a minute (a variable inter-trial interval ranging between 30 and 90 seconds will be used) for 20 minutes. The startle responses were measured and a mean for the last twenty startle response was calculated for each rat.
The following behavioral tests were administered during and after chronic dosing; body core temperature, motor activity, acoustic startle reactivity, and pre-pulse inhibition of acoustic startle.
The animals were tested in an enclosed room with a white noise generator running Motor activity tests were conducted immediately after the body core temperature reading taken on dosing day ten (about 3 hours and 35 minutes after the morning daily dose of nepicastat, and SKF-102698, and 20 minutes prior to the daily administration of clonidine and d-amphetamine on dosing day ten). Motor activity tests were run for one hour. A diagnostic program was run on each of the motor activity chambers prior to each test session to assure that the photo beams and light sensors were operating properly. […] D-amphetamine was used as the positive control for this assay.
Rat body core temperatures were obtained by inserting the rectal probe 2 cm into the colon of each rat. Each rat's body core temperature was measured three times and the average of the three reading was calculated. Body core temperature readings were obtained immediately prior to the ten day chronic dosing schedule (to obtain a baseline), and three and half hour after the morning daily dose of nepicastat, and SKF-102698, and 15 minutes prior to the daily administration of clonidine and d-amphetamine, on dosing days one, five and ten. […] Both clonidine (an alpha2 agonist), and d-amphetamine (a dopamine releaser) were used as the positive controls for this assay.
Acoustic startle reactivity (a series of muscle contractions elicited by an intense burst of noise with a rapid onset), and pre-pulse inhibition (sensorimotor gating measured by analyzing any decrease in startle reactivity which occurs when a startling stimulus is immediately preceded by a non startling stimulus) were both measured in eight SR-Lab (San Diego Instruments, San Diego, Calif.) test stations. The rats were placed individually in a Plexiglas cylinder (10 cm diameter) which was housed in a ventilated sound-attenuating enclosure. Acoustic noise bursts (a broad band noise with a rise time and fall time of 1 msec) were presented via a speaker mounted 30 cm above the animal. Also, these speakers produced a 68 dB level of background noise throughout all test sessions. A piezoelectric accelerometer attached below the plexiglass cylinder transduced the subject's movement into a voltage which was then rectified and digitized (on a scale from 0 to 4095) by a PC computer equipped with SR-Lab software and interface assembly. A decibel meter was used to calibrate the speakers in each of the eight test station to ±1% of the mean. Additionally, a SR-Lab calibrating instrument was used to calibrate each of the eight startle detection apparatuses to ±2% of the mean. Startle reactivity and pre-pulse inhibition tests were run concurrently immediately alter the motor activity test (about 4 hours and 40 minutes after the morning daily injection of nepicastat, and SKF-102698, and 10 minutes after a supplemental administration of clonidine and d-amphetamine on dosing day ten).

[2] = test system: Sprague Dawley rats; experiment: Locomotor activity and acoustic startle reactivity in rats, acute; type: in vivo; conditions: nepicastat 3-100 mg/kg, SKF-102698 100 mg/kg, clonidine 40 μg/kg
Description: Rats were housed under a normal light/dark cycle with lights on between 0900 Hrs. and 2100 Hrs. Animals were housed in pairs in standard metal wire cages, and food and water were allowed ad libitum. The locomotor activity boxes consisted of a Plexiglas box measuring 18''×18'' by 12'' high. Surrounding the Plexiglas® boxes were Omnitech Digiscan Monitors (model # RXXCM 16) which consisted of a one inch ban of photobeams and photosensors numbering 32 per box. The number of photobeam breaks were analyzed by an Omnitech Digiscan Analyzer (model # DCM-8). […] A piezoelectric accelerometer transforms the subject's movement into an arbitrary voltage on a scale of 0 to 4095. […] The average startle was calculated for each rat by taking the mean of startle number 11 through 45 (the first ten startles will be disregarded). Sixty-four of these rats were then placed in one of eight treatment groups such that each group had similar mean startle values. The eight treatment groups were as follows: […] […] The rats motor activity was monitored for four hours. […] To evaluate motor activity, horizontal activity (number of photobeams broken), number of movements, and rest time were measured. Each parameter was analyzed separately. […] The startle responses were analyzed using analysis of covariance. […] Therefore, the startle responses were analyzed by time. […]

[3] = test system: CD-1 (ICR) mice; experiment: Locomotor activity in mice, intraperitoneal; type: in vivo; conditions: i.p.; nepicastat 3-100, SKF-102698 30 and 100, cocaine 30 mg/kg
Description: Adult male CD-1 (ICR) mice (30-40 g on study day) were housed in groups of eight under a normal light/dark cycle with lights on between 0900 hr and 2100 hr. Food and water were allowed ad libitum. All animals were naive to drug treatment and behavioral testing. Each animal was only used once.
Locomotor activity was monitored in an automated 14 station activity monitoring system (San Diego Instrument Co.). Each station consisted of a clear perspex cage (25 cm×45 cm×20 cm; w×1×h) placed within a metal frame containing 3 photoemmitors and 3 photodetectors spaced equally along the length of the wall. The bottom of each cage was lightly covered in clean cedar bedding.
The mice were placed in the testing room at least 1 hr prior to testing. The mice were placed individually into one of the activity cages and allowed to explore for 30 min. […] Following a 60 minute pre-treatment period, motor activity was monitored for 180 minutes. Activity counts and ambulations (defined as a break of 2 consecutive photobeams) for each animal were recorded every 30 minutes.
A repeated measures two-way analysis of variance (ANOVA) was performed using the overall ranked data (nonparametric technique) to test for the overall effects of treatment, time interval and treatment by time interval interaction. […]

[4] = in vivo; cited from earlier work
[5] = cited from earlier work
[6] = test system: brain dopamine/norepinephrine ratio; experiment: Dopamine/norepinephrine ratios in the brain of rodents; conditions: in vivo
Method: Dopamine/norepinephrine ratios in the brain of rodents treated with nepicastat were determined. Dopamine/norepinephrine ratios increased in the brains of rodents treated with nepicastat or disulfuram.

In the case of `Clc1cccc(Cl)c1N=C1NCCN1` [clonidine], the body core temperature [1] is reported as “significantly increasing body core temperature on day one”, the pre-pulse inhibition [1] is reported as “just significantly higher percent prepulse inhibition” and the “locomotor activity (horizontal activity, movements, rest time) vs vehicle” value [2] is reported as “significantly more horizontal activities at 2 and 2.5 hours”. The “maximum and average acoustic startle response vs vehicle” value [2] was “statistically significantly lower maximum and average startle responses”.

In the case of `COC(=O)[C@H]1[C@@H](OC(=O)c2ccccc2)C[C@@H]2CC[C@H]1N2C.Cl` [cocaine, cocaine hydrochloride], the “total activity counts and ambulations vs vehicle” value [3] is listed as “significantly greater total activity counts” and the elimination half-life [4] is listed as “about 90 min”.

In the case of `CCN(CC)C(=S)SSC(=S)N(CC)CC` [disulfuram], the “cocaine use vs placebo” value ([5]; disulfuram 250 mg per day) is given as “reduced cocaine use compared to placebo”, the “elevations in plasma cocaine levels” value ([5]; intranasal cocaine during disulfuram treatment, one controlled study) is given as “Six-fold elevations” and the “dopamine/norepinephrine ratios in the brain” value [6] is given as “increased”.
